Assays:
[1] = parameters: method as in PMID 34108572; conditions: experimentally determined before; cited from earlier work
[2] = Immersion of two-cell stage zebrafish embryos (10 µM), spatiotemporal fluorescence imaging and non-compartmental AUC; format: in vivo, zebrafish (Danio rerio); conditions: immersion 10 µM; for intrabody accumulation on longer incubations: 24–72 h; for AUC-RoB IMM (AUC0.25–72h): rest of body (non-yolk); for AUC-RoB IMM (AUC0.25–72h) / AUC-WB IMM (AUC0.25–72h) / AUC-Yolk IMM (AUC0.25–72h): 0.25 to 72 h; for AUC-WB IMM (AUC0.25–72h): whole body
Description: Immersion treatment: zebrafish embryos at the two-cell stage were immersed in Danieau’s medium containing the compound. A compound concentration of 10 µM and DMSO concentration of 0.1% (v/v) in a volume of 5 mL was used per well (6-well-plates). At 72 h, the zebrafish medium containing the compound was removed, and the animals rinsed 3 × with Danieau’s medium. Next, the embryos were kept for another 48 h in Danieau’s medium supplemented with DMSO (0.1%, v/v) in the absence of compound. In the case of control experiments, the embryos were exposed to Danieau’s medium supplemented with DMSO (0.1%, v/v).
Animals were kept in dark conditions in an incubator at 28.5 °C for defined time-periods (0.25, 1, 3, 6, 24, 48, 72, 96, and 120 h) before image analysis in a dark room. To acquire images, a Leica MZ10F fluorescent stereomicroscope (Leica Microsystems Inc., Buffalo Grove, IL, USA) with a 4.0× planapochromatic objective (10447243) was used, equipped with a Digital Color Camera Leica DFC310 FX (Software LAS 4.13, Leica Microsystems Inc., Buffalo Grove, IL, USA). Filter sets were GFP 10446222 in the case of compound FAMA, dSRED 10447079 in the cases of S-CY3A, CY3A and TAMRA, and CY5 10446366 in the cases of S-CY5.5A and S-CY5A. Previous to fluorescence imaging, the embryos were dechorionated (up to 72 hpf) and immobilized by hypothermia, rinsed three times with Danieau’s medium, and positioned latero-lateral (right lateral recumbency) on a single cavity glass slide and covered by a drop of agarose (0.1%). Then, using MetaMorph (Microscopy Automation and Image Analysis Software V.7.8.00, Molecular Devices, LLC., San Jose, CA, USA) and by manual delineation of the whole-body (WB) (up to 120 h) and yolk sac contours (up to 72 h) of the zebrafish embryos the fluorescence in the selected area was quantified as integrated fluorescence intensity (RFU). The RFU values of the non-yolk compartment (i.e., RoB: rest of body) was assessed by subtracting the yolk results from the corresponding integrated fluorescence intensities found in the WB.
(§1) In order to determine the degree of tissue exposure following administration of the fluorescent compounds, we calculated the AUC as the pharmacokinetic parameter of the non-compartmental analysis. The area under a plot of the fluorescence intensity (RFUT) versus time is referred to as the area under the (zero moment) curve AUC. RFUT represents the relative amount of compound present in the ZFE by measuring the integrated fluorescence intensity of delineated contours in fluorescence images (Figure 2). The AUC was then determined by summing the incremental area of subsequent trapezoids. […] In some cases, observations were censored and excluded from the analysis, due to possible fluorescence quenching effect of compounds that remains at the site of the intrayolk microinjection.

[3] = Intrayolk (IY) microinjection of two-cell stage zebrafish embryos (2 mg/kg), spatiotemporal fluorescence imaging and non-compartmental AUC; format: in vivo, zebrafish (Danio rerio); conditions: for accumulation in the gastrointestinal system / localization of the dye after IY microinjection: IY microinjection 2 mg/kg; for accumulation in the gastrointestinal system: after 96 hpf; for RD (IY), Relative Distribution: ratio of AUCRoB to AUCWB after microinjection into the yolk (2 mg/kg), 0.25–72 h; for localization of the dye after IY microinjection: first hours post injection
From the text: Intrayolk microinjection (IY): zebrafish embryos at the two-cell stage were positioned in a Petri dish at room temperature. […] Needles were filled with compounds dissolved in the vehicle (DMSO/saline (1:1)), placed under the microscope, and using forceps, the tip was cut off in a manner to allow for a consistent volume to be injected. Afterwards, the embryos were transferred to 6-well plates. Control embryos were exposed to vehicle only. […] Previous to fluorescence imaging, the embryos were dechorionated (up to 72 hpf) and immobilized by hypothermia, rinsed three times with Danieau's medium, and positioned latero-lateral (right lateral recumbency) on a single cavity glass slide and covered by a drop of agarose (0.1%). Then, using MetaMorph (Microscopy Automation and Image Analysis Software V.7.8.00, Molecular Devices, LLC., San Jose, CA, USA) and by manual delineation of the whole-body (WB) (up to 120 h) and yolk sac contours (up to 72 h) of the zebrafish embryos the fluorescence in the selected area was quantified as integrated fluorescence intensity (RFU). The RFU values of the non-yolk compartment (i.e., RoB: rest of body) was assessed by subtracting the yolk results from the corresponding integrated fluorescence intensities found in the WB. In order to determine the degree of tissue exposure following administration of the fluorescent compounds, we calculated the AUC as the pharmacokinetic parameter of the non-compartmental analysis. The area under a plot of the fluorescence intensity (RFUT) versus time is referred to as the area under the (zero moment) curve AUC. RFUT represents the relative amount of compound present in the ZFE by measuring the integrated fluorescence intensity of delineated contours in fluorescence images (Figure 2). The AUC was then determined by summing the incremental area of subsequent trapezoids.

[4] = Relative Exposure (RE10/2/72h): ratio of AUC immersion to AUC IY microinjection; format: in vivo, zebrafish (Danio rerio)
Description: We then assessed by non-compartmental analysis the area from 0.25 to 72 h post exposure under the concentration–time curve (AUC0.25–72h) (Table 1) that represents well the relative tissue exposure to fluorescent compound across time. These absolute fluorescence intensities however cannot be comscriptpared across compounds as they depend critically on the respective quantum yields of the compounds and the device settings. To be able to compare the PK behavior of the compounds following different administration routes, we calculated the fluorescence-independent pharmacokinetic parameter Relative Exposure (RE10/2/72h), i.e., the ratio of AUC0.25–72h immersion (10 µM) to AUC0.25–72h IY microinjection (2 mg/kg). Separate RE values were calculated based on the whole body (WB), rest-of-body (RoB) and yolk fluorescence measurements (Table 2).
as §1
We further calculated the Relative Exposure (RE10/2) by comparing the […] after IY microinjection (2 mg/kg), as defined in Equation (2): (2) RE10/2/h=AUCImm/AUCInj.

[5] = rest of body (non-yolk), intrayolk microinjection 2 mg/kg, 0.25 to 72 h
[6] = whole body, intrayolk microinjection 2 mg/kg, 0.25 to 72 h
[7] = yolk, intrayolk microinjection 2 mg/kg, 0.25 to 72 h

Row | Compound | AUC-RoB IMM (AUC0.25–72h) [2] [RFU × 10^7] | AUC-WB IMM (AUC0.25–72h) [2] [RFU × 10^7] | AUC-Yolk IMM (AUC0.25–72h) [2] [RFU × 10^7] | accumulation in the gastrointestinal system [3] | RD (IY), Relative Distribution [3] | AUC-RoB IY (AUC0.25–72h) [3, 5] [RFU × 10^7] | AUC-WB IY (AUC0.25–72h) [3, 6] [RFU × 10^7] | AUC-Yolk IY (AUC0.25–72h) [3, 7] [RFU × 10^7] | intrabody accumulation after one hour of immersion followed by dechorionation ([2]; 1 h, dechorionated and rinsed) | RE-WB (Relative Exposure RE-WB10/2/72h) ([4]; zebrafish, in vivo) | AUC-RoB IY (AUC0.25–72h) ([3]; zebrafish, in vivo, 2 mg/kg) [RFU × 10^7] | AUC-WB IY (AUC0.25–72h) ([3]; zebrafish, in vivo, 2 mg/kg) [RFU × 10^7] | AUC-Yolk IY (AUC0.25–72h) ([3]; zebrafish, in vivo, 2 mg/kg) [RFU × 10^7] | Log D [1] | intrabody accumulation on longer incubations [2] | RE-RoB (Relative Exposure RE-RoB10/2/72h) ([4]; rest of body, AUC0.25–72h immersion (10 µM) / AUC0.25–72h IY microinjection (2 mg/kg)) | RE-WB (Relative Exposure RE-WB10/2/72h) ([4]; whole body, AUC0.25–72h immersion (10 µM) / AUC0.25–72h IY microinjection (2 mg/kg)) | RE-Yolk (Relative Exposure RE-Yolk10/2/72h) ([4]; yolk, AUC0.25–72h immersion (10 µM) / AUC0.25–72h IY microinjection (2 mg/kg)) | localization of the dye after IY microinjection [3]
1 | C#CCNC(=O)c1ccc(-c2c3ccc(=[N+](C)C)cc-3oc3cc(N(C)C)ccc23)c(C(=O)[O-])c1 (single isomer, unassigned) [TAMRA] | 2.78 | 7.76 | 4.98 | accumulation | 0.28 | 11.2 | 40.4 | 29.1 |  |  |  |  |  | 0.46 | further intrabody accumulation | 0.25 | 0.19 | 0.17 | 
2 | C#CCNC(=O)CCCCCN1C(=CC=CC2=[N+](C)c3ccccc3C2(C)C)C(C)(C)c2ccccc21.[Cl-] [CY3A, Cyanine 3] | 6.41 | 20.9 | 14.6 | accumulation | 0.17 | 3.21 | 18.9 | 15.7 | fast intrabody accumulation | 1.11 |  |  |  | 1.73 | further intrabody accumulation |  |  |  | 
3 | Rhodamine 6g 6-Isomer [Compound R6GA] |  |  |  |  |  |  |  |  |  | 0.10 | 1.48 | 5.76 | 4.29 | 1.07 |  |  |  |  | 

Second part, led by results:

Row | AUC-RoB IMM (AUC0.25–72h) [2] [RFU × 10^7] | AUC-WB IMM (AUC0.25–72h) [2] [RFU × 10^7] | AUC-Yolk IMM (AUC0.25–72h) [2] [RFU × 10^7] | accumulation in the gastrointestinal system [3] | RD (IY), Relative Distribution [3] | AUC-RoB IY (AUC0.25–72h) [3, 5] [RFU × 10^7] | AUC-WB IY (AUC0.25–72h) [3, 6] [RFU × 10^7] | AUC-Yolk IY (AUC0.25–72h) [3, 7] [RFU × 10^7] | intrabody accumulation after one hour of immersion followed by dechorionation ([2]; 1 h, dechorionated and rinsed) | RE-WB (Relative Exposure RE-WB10/2/72h) ([4]; zebrafish, in vivo) | AUC-RoB IY (AUC0.25–72h) ([3]; zebrafish, in vivo, 2 mg/kg) [RFU × 10^7] | AUC-WB IY (AUC0.25–72h) ([3]; zebrafish, in vivo, 2 mg/kg) [RFU × 10^7] | AUC-Yolk IY (AUC0.25–72h) ([3]; zebrafish, in vivo, 2 mg/kg) [RFU × 10^7] | Compound | Log D [1] | intrabody accumulation on longer incubations [2] | RE-RoB (Relative Exposure RE-RoB10/2/72h) ([4]; rest of body, AUC0.25–72h immersion (10 µM) / AUC0.25–72h IY microinjection (2 mg/kg)) | RE-WB (Relative Exposure RE-WB10/2/72h) ([4]; whole body, AUC0.25–72h immersion (10 µM) / AUC0.25–72h IY microinjection (2 mg/kg)) | RE-Yolk (Relative Exposure RE-Yolk10/2/72h) ([4]; yolk, AUC0.25–72h immersion (10 µM) / AUC0.25–72h IY microinjection (2 mg/kg)) | localization of the dye after IY microinjection [3]
4 | 0.84 | 1.17 | 0.36 | accumulation | 0.32 | 6.93 |  | 14.9 |  | 0.05 |  |  |  | C#CCNC(=O)c1ccc2c(c1)C(=O)OC21c2ccc(O)cc2Oc2cc(O)ccc21 [FAMA, Fam A, 5-Isomer] | −0.14 |  |  |  |  | 
5 | 2.67 | 4.56 | 1.89 | accumulation | 0.24 | 7.65 | 31.4 | 23.8 |  | 0.15 |  |  |  | C#CCNC(=O)CCCCCN1C(=CC=CC2=[N+](C)c3ccc(S(=O)(=O)[O-])cc3C2(C)C)C(C)(C)c2cc(S(=O)(=O)[O-])ccc21.[K+] [S-CY3A, S-Cyanine 3] | −1.96 |  |  |  |  | stayed localized to the microinjection site
6 | 0 | 0 | 0 |  | 0.19 | 1.02 | 5.45 | 4.42 |  | 0 |  |  |  | C#CCNC(=O)CCCCC[N+]1=C(C=CC=CC=C2N(C)c3ccc4c(S(=O)(=O)[O-])cc(S(=O)(=O)[O-])cc4c3C2(C)C)C(C)(C)c2c1ccc1c(S(=O)(=O)[O-])cc(S(=O)(=O)[O-])cc21.[K+].[K+].[K+] [S-CY5.5A, S-Cyanine 5.5] | −1.68 |  |  |  |  | stayed localized to the microinjection site
7 | 0 | 0 | 0 |  | 0.18 | 1.67 | 9.49 | 7.82 |  | 0 |  |  |  | S-Cyanine 5A [S-CY5A] | −0.72 |  |  |  |  | stayed localized to the microinjection site

Reference: paper PMC8234359, “Pharmacokinetics in Zebrafish Embryos (ZFE) Following Immersion and Intrayolk Administration: A Fluorescence-Based Analysis” (Pharmaceuticals, 2021)
